Patent US20070082956A1, “The use of 1-amino-alkylcyclohexane compounds in the treatment of pain hypersensitivity” (MERZ PHARMA GmbH & Co. KGaA, priority 2003, published 2007)

Test system: intradermal capsaicin injection model (secondary hyperalgesia)
Assay: Human surrogate model of neuropathic pain (intradermal capsaicin injection), placebo-controlled double-blind crossover study
Format: in vivo
Description: This surrogate model of neuropathic pain is thus a valid method for early clinical testing of substances for the treatment of neuropathic pain. The efficacy of the neramexane, a moderate affinity, uncompetitive NMDA receptor antagonist, was tested in a placebo-controlled double-blind crossover study in the intradermal capsaicin injection model. Capsaicin (40 μg) was injected intradermally in the skin of the ventral forearm 3 hours after administration of a single oral dose of neramexane hydrochloride (40 mg) or placebo. Changes of pain sensitivity adjacent to the capsaicin injection and in a remote control area were tested in parallel by quantitative sensory testing prior to oral neramexane or placebo, 2½ hours after neramexane or placebo (i.e., prior to capsaicin injection) and 1½ hours after capsaicin injection. The capsaicin injection elicited a strong, over 5-10 min rapidly declining burning pain resulting in enhanced pain sensitivity adjacent to the injection including hyperalgesia to pin prick and pain to light touch (“allodynia”).

CC1(C)CC(C)(C)CC(C)(N)C1 [neramexane, 1-amino-1,3,3,5,5-pentamethylcyclohexane]
size of the capsaicin-induced axon reflex erythema (single oral dose 40 mg): remained unaltered | summation of pain to repetitive pin prick stimulation (trains of 10 stimuli at 1 Hz) (single oral dose 40 mg): never changed | reduction of capsaicin-induced burning pain compared to placebo (single oral dose 40 mg, 2nd-5th min after capsaicin injection, n.s.): 33% | reduction of pain to stroking light touch stimuli (allodynia) (single oral dose 40 mg, across all test times, p=0.07): 22% | reduction of pain of noxious pin pricks compared to placebo (analgesia) (single oral dose 40 mg, control area at any time and test area before capsaicin injection, p<0.001): 27-31% | reduction of pain to stroking light touch stimuli (allodynia) (single oral dose 40 mg, first 30 min after capsaicin injection, p<0.05): 25% | antihyperalgesia alone, calculated from the ratio of test and control area (single oral dose 40 mg, not significant): 9% | reduction of pin prick pain compared to placebo (combined analgesia and antihyperalgesia) (single oral dose 40 mg, test area after capsaicin injection, p<0.001): 39% | reduction of capsaicin-induced burning pain compared to placebo (single oral dose neramexane hydrochloride 40 mg, 3 hours before capsaicin 40 μg intradermal, first minute after injection, p<0.01): 21%
